A word on the melting point: it is the temperature, or range, at which the solid turns liquid.

Data set [1] has as its system chick fetal bones in culture. As to the kind of experiment: Inhibition of PTH-induced resorption of 45Ca from chick fetal bones in culture (antiresorptive activity in vitro). The data set is classed as cell-based. Particulars: for T/C Ratio: PTH-induced 45Ca resorption, 96 h culture. As to the method: Test Procedure for Evaluation of Antiosteoporosis (Antiresorptive) Activity in Vitro:
Test solutions of the compounds of the present invention are prepared in appropriate solvents in concentration range of 5 millimolar to 400 millimolar, most preferably in concentrations of 20 millimolar. 5 μl of each concentration are used for evaluation of antiresorptive activity in vitro. In control experiments, 5 μl of appropriate solvent is used in lieu of test compound. Femur bones are isolated from chick embryos on day 11 post-ovulation. The adhering soft connective tissue is completely removed. Each femur bone is then placed in a drop of phosphate buffered saline (PBS) and is transferred to BGJb culture medium containing ^45CaCl2 and incubated for 2 h. Labeled femur bones are washed 2-3 times with PBS and transferred to BGJb medium containing parathyroid hormone and cultured for 96 h in the presence or absence of the compound of invention or the vehicle in BGJb medium. Contralateral femur of each fetus serves as corresponding control. Culture medium with the respective treatment in each well is changed after 48 h. On termination of the culture at 96 h, bones are transferred to 0.1 N HCl for 24 h. Radioactivity due to ^45Ca in the spent medium collected at 48 and 96 h of culture and HCl extract at 96 h of culture is quantified by Liquid Scintillation Spectrophotometer in 10 ml of the scintillation fluid. Bone resorbing activity is expressed as percentage of ^45Ca released into the culture medium and the effect of the compound of invention as percent of the corresponding contra-lateral control or T/C ratio as shown below:
Appropriate solvents are selected from solvents like water, normal saline, phosphate buffered saline, phosphate buffer, DMSO alone or in a suitable combination thereof.
It was devoid of any pos-coital antifertility and estrogenic activities in rats.

In data set [2] the test system is ovariectomized (OVX) female Sprague-Dawley rats. As to the kind of experiment: Antiosteoporosis activity in vivo: bone mineral density in ovariectomized rats. Also noted: species or system rat. Particulars: oral once daily days 1-30 post-ovariectomy. As to the method: Test Procedure for Evaluation of Antiosteoporosis Activity in Vivo:
(§1) The in vivo antiosteoporosis activity is evaluated in colony-bred adult (3-4 month old) female Sprague-Dawley rats or female retired breeder Sprague-Dawley rats ([…]; parity≧3). Animals are bilaterally ovariectomized (OVX) under light ether anesthesia and treated with the compound of the present invention, 17-alfa-ethynylestradiol (EE) or the vehicle once daily on days 1-30 post-ovariectomy (day 1: day of bilateral ovariectomy) by the oral route. One group consisting of females is sham operated and treated similarly with the vehicle. Animals of all the groups are autopsied 24 h after the last treatment. Before autopsy, 24 h fasting urine samples are collected in fresh containers using all-glass metabolic cages and stored at −20° C. until analyzed for calcium, phosphorus and creatinine. At autopsy, about 5 ml blood samples are collected by cardiac puncture from each rat under light ether anesthesia and serum is isolated and stored at −20° C. until analyzed for total and bone specific alkaline phosphatase, osteocalcin and calcium. Uterus of each rat is carefully excised, gently blotted, weighed and fixed for histology. Representative sections (5 μm) from each uterus are stained with haematoxylin and eosin. Femur and tibia of each rat are then dissected free of adhering tissue, fixed in 70% ethanol in physiological saline and stored at −20° C. until Bone Mineral Density (BMD) measurement. Before autopsy, whole body scan of each rat for measurement of BMD is performed on an Hologic QDR-4500A fan-beam densitometer, calibrated daily with Hologic hydroxyapatite anthropomorphic spine phantom using manufacturer provided software for small animals. BMD measurement of isolated bones is performed using identical regions of interest. Serum total alkaline phosphatase, osteocalcin, calcium ion content and urinary calcium and creatinine are estimated colorimetrically using commercial kits (Table 2).

Data set [3] shares this test system. Kind of data set: Anti-hyperlipidaemic activity: blood serum total cholesterol in OVX rats. Format: in vivo, rat. The settings on record: days 1-30; for Total Cholesterol: blood serum. As to the method:
Test Procedure for Evaluation of Anti-Hyperlipidaemic Activity:
The in vivo anti-hyperlipidaemic activity is evaluated in colony-bred adult (3-4 month old) female Sprague-Dawley rats or female retired breeder Sprague-Dawley rats ([…]; parity≧3). Animals are bilaterally ovariectomized (OVX) under light ether anesthesia and treated with the compound of the present invention, 17-alfa-ethynylestradiol (EE) or the vehicle once daily on days 1-30 post-ovariectomy (day 1: day of bilateral ovariectomy) by the oral route. One group consisting of females is sham operated and treated similarly with the vehicle. Animals of all the groups are autopsied 24 h after the last treatment. At autopsy, about 5 ml blood samples are collected by cardiac puncture from each rat under light ether anesthesia and serum is isolated and stored at −20° C. until analyzed for total cholesterol. The total cholesterol concentration is measured by a timed-end point method using a Beckman Synchron CX autoanalyser. In the reaction, cholesterol estrase hydrolyses cholesterol esters to free cholesterol and fatty acids. Free cholesterol is oxidized to cholestene-3-one and H2O2 by cholesterol oxidase. Peroxidase catalyses the reaction of H2O2 with 4-amino antipyrine and phenol to produce a colored quinoneimine product. Absorbance is recorded at 520 nm (Table 3).

Data set [4] has as its system immature OVX rats. Kind of data set: Estrogen agonistic activity: uterine weight and morphometry in immature OVX rats. Format: in vivo, rat. As to the method:
Test Procedure for Evaluation of Estrogen Agonistic Activity:
Twenty-one-day-old immature female rats are bilaterally ovariectomized under light ether anesthesia and, after post-operative rest for 7 days, are randomized into different treatment groups. Each rat receives the compound of the invention once daily for 3 consecutive days on days 28-30 of age. A separate group consisting of animals receiving only the vehicle for similar duration serves as control. At autopsy 24 h after the last treatment on day 31 of age, vaginal smear of each rat is taken and uterus is carefully excised, gently blotted, weighed and fixed for histology and histomorphometry using image analysis. Premature opening of vagina, cornification of vaginal epithelium, increase in uterine fresh weight, total uterine and endometrial area and uterine luminal epithelial cell height are taken as parameters for evaluation of estrogen agonistic activity in comparison to rats of vehicle control group (Table 6).
(§2) For image analysis in estrogen agonistic activity evaluation studies, paraffin sections (6 μm thick) of the uterus stained with haematoxylin and eosin were analyzed microscopically. To determine changes in uterine tissue components, areas of whole uterus and endometrium and the thickness of uterine epithelium were measured using a computer-image analysis system (BioVis, Expert Vision, India). Briefly, microscopic images of uterus acquired through a CCD camera were loaded in to the image analysis program and spatially calibrated against a stage micrometer image taken at the same magnification. Using thresholding and line tools, the regions for measurements were selected and the area (mm^2) of whole uterine transection excluding the luminal space, the area (mm^2) of the endometrium only, and the thickness (μm) of luminal epithelial lining were measured. Luminal epithelial thickness data was the average of measurements made at 6 randomly selected sites of the lining (Table 7).

Another data set has as its system retired breeder OVX rats. As to the kind of experiment: Estrogen agonistic activity: uterine weight and morphometry in retired breeder OVX rats. The data set is classed as in vivo, rat. As to the method: as §1, §2
For data set [5], the system named is immature OVX rats. As to the kind of experiment: Estrogen antagonistic activity: inhibition of EE-induced uterine weight gain in immature OVX rats. The data set is classed as in vivo, rat. The settings on record: daily dose 10 mg/kg with 0.02 mg/kg 17-alfa-ethynylestradiol, 3 days. As to the method:
Test Procedure for Evaluation of Estrogen Antagonistic Activity:
Twenty-one-day-old immature female rats are bilaterally ovariectomized under light ether anesthesia and after post-operative rest for 7 days, are randomized into different treatment groups. Each rat receives the compounds of the invention and 0.02 mg/kg dose of 17-alfa-ethynylestradiol in 10% ethanol-distilled water once daily for 3 consecutive days on days 28-30 of age. A separate group consisting of animals receiving only 17-alfa-ethynylestradiol (0.02 mg/kg) in 10% ethanol-distilled water for similar duration are used for comparison. At autopsy on day 31 of age, vaginal smear of each rat is taken and uterus is carefully excised, gently blotted, weighed and fixed for histology and histomorphometry using image analysis. Inhibition in 17-alfa-ethynylestradiol-induced premature opening of vagina, cornification of vaginal epithelium, increase in uterine fresh weight, total uterine and endometrial area and uterine luminal epithelial cell height are taken as parameters for evaluation of estrogen antagonistic activity (Table 8).

The next data set deals with MCF-7 cells. As to the kind of experiment: Antiproliferative/cytotoxic activity in cultured MCF-7 cells (SRB assay). Particulars: 48 h incubation. (In general: Sulforhodamine B stains cellular protein and so reports cell mass.)

As for `O=C(c1ccc(OCCN2CCCCC2)cc1)c1c(-c2ccc(O)cc2)sc2cc(O)ccc12` [Raloxifene, reference compound], the T/C in data set [1] (chick foetal bone assay, concentration not stated) is reported as 0.6.

On to `CS(=O)(=O)c1ccc(C(=O)c2ccc3ccccc3c2)cc1` [Example 8, (4-Methylsulfonylphenyl)-naphth-2-yl-ketone], for which the melting point came out at 160 °C.

Compound `CS(=O)(=O)c1ccc(C(O)c2cccc3ccccc23)cc1` (stereo not drawn) [Example 4, (4-Methylsulfonylphenyl)-naphth-1-yl-carbinol] gave a melting point of 160 °C. The “T/C Ratio” value in data set [1] (100 μM) is 0.97.

In turn, `CS(=O)(=O)c1ccc(C(O)c2ccc3ccccc3c2)cc1` (stereo not drawn) [Example 9, (4-Methylsulfonylphenyl)-naphth-2-yl-carbinol] yielded a melting point of 100 °C. The “T/C Ratio” value in data set [1] (100 μM) is listed as 1.15.

`CCSc1ccc(C(=O)c2cccc3ccccc23)cc1` [Example 11, (4-Ethylthiophenyl)-naphth-1-yl-ketone]: the “T/C Ratio” value in data set [1] (100 μM) came to 0.77.

In turn, `CSc1ccc(C(O)c2cccc3ccccc23)cc1` (stereo not drawn) [Example 3, (4-Methylthiophenyl)-naphth-1-yl-carbinol] came in with a melting point of 80 °C. In data set [1] (50 μM), the “T/C Ratio” value was determined as 1.41.

Regarding `CSc1ccc(C(=O)c2cccc3ccccc23)cc1` [Example 1, (4-Methylthiophenyl)-(naphth-1-yl)-ketone], the entries for the “T/C Ratio” value in data set [1] (25 μM), in data set [1] (50 μM) and in data set [1] (100 μM) were 0.77, 0.60 and 0.44, respectively. In addition, the “Increase in BMD (g/cm^2): Percent of OVX + vehicle treatment group, Percent Increase” value in data set [2] (Femur Global) is 8%; in data set [2] (Femur Neck), 13%; in data set [2] (Tibia Global), 3.7%; in data set [2] (Tibia proximal) it was 13.8%. Further, in data set [3] (daily dose 10 mg/kg oral), the “Total Cholesterol” value came out at 20.00 mg/dL. In data set [3] (daily dose 10 mg/kg oral), the “% Change in blood serum total cholesterol concentration” value was 21.94%. The “Endometrium Epithelial Cell Height” value came to 7.16 μm with immature OVX rats [4] (daily dose 10 mg/kg) and 9.63 μm in the data set with retired breeder OVX rats (daily dose 10 mg/kg). In addition, the “Endometrium Total Area” value with immature OVX rats [4] (daily dose 10 mg/kg) came to 0.085 mm^2; with retired breeder OVX rats (daily dose 10 mg/kg), 0.37 mm^2. For the same compound, the “Increase in uterine weight: Percent of OVX + vehicle treatment group, Percent Increase” value in the data set with immature OVX rats [4] (daily dose 10 mg/kg) amounted to 16%; in the data set on retired breeder OVX rats (daily dose 10 mg/kg), 41%. Also, the “Uterus Total Area” value in the data set on immature OVX rats [4] (daily dose 10 mg/kg) is reported as 0.105 Mm^2; with retired breeder OVX rats (daily dose 10 mg/kg) it was 1.38 Mm^2. In the data set with immature OVX rats [5], the “Percent inhibition in EE induced uterine weight gain” value is listed as 32%. Also, in the data set on MCF-7 cells, the LC50 result was “Inactive”.

With `C#C[C@]1(O)CC[C@H]2[C@@H]3CCc4cc(O)ccc4[C@H]3CC[C@@]21C` [EE, 17-alfa-ethynylestradiol, reference compound], the “Increase in BMD (g/cm^2): Percent of OVX + vehicle treatment group, Percent Increase” value worked out at 16.1% in data set [2] (Femur Global), 13.5% in data set [2] (Femur Neck), 3.8% in data set [2] (Tibia Global) and 25.2% in data set [2] (Tibia proximal). For the same compound, the “Total Cholesterol” value in data set [3] (daily dose 0.50 mg/kg oral) was less than 5 mg/dL. Moreover, the “Endometrium Epithelial Cell Height” value in the data set on immature OVX rats [4] (daily dose 0.01 mg/kg) came out at 33.65 μm; in the data set on retired breeder OVX rats (daily dose 0.5 mg/kg) it was 46.36 μm. The “Endometrium Total Area” value in the data set with immature OVX rats [4] (daily dose 0.01 mg/kg) worked out at 0.57 mm^2; with retired breeder OVX rats (daily dose 0.5 mg/kg), 4.07 mm^2. Moreover, the “Increase in uterine weight: Percent of OVX + vehicle treatment group, Percent Increase” value was determined as 419% with immature OVX rats [4] (daily dose 0.01 mg/kg) and 260% with retired breeder OVX rats (daily dose 0.5 mg/kg). Further, the entries for the “Uterus Total Area” value in the data set on immature OVX rats [4] (daily dose 0.01 mg/kg) and with retired breeder OVX rats (daily dose 0.5 mg/kg) were 1.21 Mm^2 and 6.86 Mm^2, respectively.

For the compound `CS(=O)(=O)c1ccc(C(=O)c2cccc3ccccc23)cc1` [Example 2, (4-Methylsulfonylphenyl)-naphth-1-yl-ketone], the melting point was 150 °C.

(Values after US7582653B2, “Mercaptophenyl naphthyl methane compounds and synthesis thereof” (Council of Scientific & Industrial Research, priority 2003, dated 2009).)
